Results taken from patent US10617677B2, “Nuclear transport modulators and uses thereof” (Biogen MA Inc., priority 2012, dated 2020).
“Also recorded” adds a separate entry of the source.

Experiments:
MOG-induced EAE = test: MOG-induced experimental autoimmune encephalomyelitis (EAE) murine model; type: in vivo, mice; settings: 7.5 mg/kg p.o. starting on study day 11, Monday, Wednesday and Friday
Protocol: The EAE Model is an accepted model for the study of human CNS demyelinating diseases such as multiple sclerosis. The effects of Compound 1 were investigated in MOG-induced in an EAE murine model in female C57B1/6J mice. […] Compound 1 at 7.5 mg/kg was administered orally starting from day 11 (disease onset) on Monday, Wednesday and Friday for 3 consecutive weeks. The disease was induced by the single intradermal injection of MOG emulsified in Complete Freund's Adjuvant (CFA) on study day 0, followed by intraperitoneal supplemental immunostimulation with pertussis toxin (PT) carried out on study day 0, and again 48 hours later on study day 2.

[1] = test system: collagen-induced arthritis; test: Collagen-induced arthritis (CIA) in Lewis rats; type: in vivo; settings: 4 mg/kg PO QoD from onset to day 28
Protocol: Forty (40) female Lewis rats (BK), aged 6 to 8 weeks with a pre-treatment body weight range of 180 to 200 g were divided randomly into four (4) groups (Groups A-D) of ten (10) rats each. The rats in Groups B to D were immunized intradermally with bovine CII in IFA at three sites near the base of the tail and over the back with 500 μL of the emulsion on day 0 (200 μL, 200 μL, 100 μL for each site). On day 7, the rats in Groups B-D were given booster injections with the same amount of the emulsion intradermally near the former injection sites. […] Rats were weighed daily and a drug holiday was given to an animal when a weight loss of greater than 13%. CIA development was evaluated via macroscopic scoring and measurements of paw swelling. […] Foot volume was measured by plethysmometry on the same day of the arthritic measurement throughout the study period. The cubage of each hind paw and swelling rate were measured and using the following equation: Swelling Rate=(CN−C0)/C0×100%. […] The clinical scores were summed for each animal, and the total average of all animals in each group was expressed as the mean arthritic score. […] Prepared sections of hind paws were subjected to hematoxylin and eosin (H&E) staining.

IMQ-induced psoriasis = test: Imiquimod (IMQ)-induced dermal inflammation/psoriasis model, Study 2; type: in vivo, mice; settings: for Rate of reduction of DAI, % change from 1st dose administration: Compound 2 2.5 mg/kg, cyclophosphamide 10 mg/kg
Protocol: Forty (40) male BALB/c mice (Biological E Limited, Hyderabad (CPCSEA registration number: 36/99/CPCSEA)) were divided into four (4) groups consisting of ten (10) mice each. Animals were randomized based on their body weight. The groups were designated as Group-I (Naïve), Group-II (IMQ; vehicle (PEG 400 and HPBCD)), Group-III (IMQ; Compound 2 (2.5 mg/kg)) and […] (IMQ; cyclophosphamide (10 mg/kg)).
A small area on the dorsum of each mouse was shaved, ensuring that these areas were of equal size/area. Psoriasis was induced in Groups II to IV by topical application of 50 mg of IMQ cream daily from Day 1 to Day 6 on the dorsum of the animals. On Day 1 and Day 2 of the study, four hours after topical application of IMQ, Compound 2 or positive control (cyclophosphamide) or vehicle were administered to animals in pertinent groups. Of note, animals in Group II and Group III were subjected to subcutaneous injections, whereas animals in Group IV received oral administration. The Compound 2, vehicle and cyclophosphamide treatment was terminated on Day 2. These groups of animals were maintained on daily IMQ treatments until Day 6. On Day 7, the psoriasis-induced animals were re-randomized into 3 groups consisting of 10 animals each based on Cumulative Disease Activity Index (CDAI). From Day 7 to Day 9, animals received vehicle or positive control or Compound 2. Of note, on these days animals were not treated with IMQ. From Day 10 to Day 14, the animals were treated alternatively with IMQ (Days 10, 12 and 14), or vehicle, positive control or Compound 2 (Days 11, 13).
All animals were observed daily for a period of 16 days for gross observations, body weight and feed and water intake. On Days 1 and 2, scorings of erythema, scaling, folding and thickening of skin were recorded 2 hours after administration of vehicle/positive control/test compounds, and on Days 3 to 14 scorings were recorded 4 hours after IMQ application, or administration of positive control, vehicle or Compound 2.
Vehicle was prepared by dissolving 40 mg of HPBCD in 70.0 mL of distilled water. Compound 2 was prepared by dissolving 3.59 mg in 0.5% PVP and 0.5% Pluronic. Cyclophosphamide was prepared by dissolving 500 mg of CMC in 100 mL distilled water.
The experimental results shown in Table 10 are expressed as mean±SEM. Data was assessed using one-way ANOVA, and post hoc analysis was performed using Dunnett's test.

CC(C)(C)C(=O)NNC(=O)/C=C\n1cnc(-c2cc(C(F)(F)F)cc(C(F)(F)F)c2)n1 [Compound 1, (Z)-3-(3-(3,5-bis(trifluoromethyl)phenyl)-1H-1,2,4-triazol-1-yl)-N′-pivaloylacrylohydrazide]
disease (clinical) score and severity (MOG-induced EAE): significantly decreased disease score and severity; also recorded: decrease in disease score and severity

O=C(/C=C\n1cnc(-c2cc(C(F)(F)F)cc(C(F)(F)F)c2)n1)NNC(=O)CN1CCOCC1 [Compound 2, (Z)-3-(3-(3,5-bis(trifluoromethyl)phenyl)-1H-1,2,4-triazol-1-yl)-N′-(2-morpholinoacetyl)acrylohydrazide]
Clinical Scores, Joint Swelling and histological examination [1]: therapeutic efficacy | histopathology of hind paws (H&E) [1]: relatively intact cartilage was found on the joint surface and pannus formation was minimal | body weight, food consumption and water intake (IMQ-induced psoriasis; 2.5 mg/kg subcutaneous): without greatly impacting the consumption of food or water | rate of reduction of disease activity index versus vehicle (IMQ-induced psoriasis; 2.5 mg/kg subcutaneous): significantly greater than that observed in animals treated with vehicle; also recorded: diminished IMQ-induced disease manifestation | Rate of reduction of DAI, % change from 1st dose administration (IMQ-induced psoriasis; Day 7, 4 hr. post-IMQ/drug administration readings): −30.9% | Rate of reduction of DAI, % change from 1st dose administration (IMQ-induced psoriasis; Day 7, pre-IMQ/drug administration readings): 0.0% | Rate of reduction of DAI, % change from 1st dose administration (IMQ-induced psoriasis; Day 8, 4 hr. post-IMQ/drug administration readings): −35.3% | Rate of reduction of DAI, % change from 1st dose administration (IMQ-induced psoriasis; Day 8, pre-IMQ/drug administration readings): −33.8% | Rate of reduction of DAI, % change from 1st dose administration (IMQ-induced psoriasis; Day 9, 4 hr. post-IMQ/drug administration readings): −63.2% | Rate of reduction of DAI, % change from 1st dose administration (IMQ-induced psoriasis; Day 9, pre-IMQ/drug administration readings): −58.8% | Rate of reduction of DAI, % change from 1st dose administration (IMQ-induced psoriasis; Day 10, 4 hr. post-IMQ/drug administration readings): −88.2% | Rate of reduction of DAI, % change from 1st dose administration (IMQ-induced psoriasis; Day 10, pre-IMQ/drug administration readings): −88.2% | Rate of reduction of DAI, % change from 1st dose administration (IMQ-induced psoriasis; Day 11, 4 hr. post-IMQ/drug administration readings): −70.6% | Rate of reduction of DAI, % change from 1st dose administration (IMQ-induced psoriasis; Day 11, pre-IMQ/drug administration readings): −73.5% | Rate of reduction of DAI, % change from 1st dose administration (IMQ-induced psoriasis; Day 12, 4 hr. post-IMQ/drug administration readings): −73.5% | Rate of reduction of DAI, % change from 1st dose administration (IMQ-induced psoriasis; Day 12, pre-IMQ/drug administration readings): −80.9% | Rate of reduction of DAI, % change from 1st dose administration (IMQ-induced psoriasis; Day 13, 4 hr. post-IMQ/drug administration readings): −60.3% | Rate of reduction of DAI, % change from 1st dose administration (IMQ-induced psoriasis; Day 13, pre-IMQ/drug administration readings): −61.8% | Rate of reduction of DAI, % change from 1st dose administration (IMQ-induced psoriasis; Day 14, 4 hr. post-IMQ/drug administration readings): −63.2% | Rate of reduction of DAI, % change from 1st dose administration (IMQ-induced psoriasis; Day 14, pre-IMQ/drug administration readings): −66.2% | Rate of reduction of DAI, % change from 1st dose administration (IMQ-induced psoriasis; Day 15, pre-IMQ/drug administration readings): −64.7%
